Measurements from paper PMC7922224, “Searching for Small Molecules as Antibacterials: Non-Cytotoxic Diarylureas Analogues of Triclocarban” (Antibiotics, 2021).
Converted amounts (≈) assume the structure as drawn.

How the values were obtained:
[1] = system: cancer cell lines (MCF-7, MDA-MB-231, HeLa, Ishikawa, A2058); assay: MTT cell viability assay, panel of cancer cell lines; assay type: cell-based; conditions: Homo sapiens, all cancer cell lines used, 72 h, read-out: IC50 against the cancer cell lines
Excerpt: In order to investigate the anticancer effects of compounds 1ab, 1bc and 1ce (TCC), we used different human cancer cell models, namely, two breast cancer cells (MCF-7 and MDA-MB-231), two uterine cancer cells (HeLa and Ishikawa) and the melanoma epithelial cells A2058.
(§1) Human MCF-7 and MDA-MB-231 breast cancer cells, HeLa and […] uterine carcinoma cells, A2058 melanoma epithelial cells, MCF-10A mammary epithelial cells and Hek-293 embryonic kidney epithelial cells were obtained from American Type Culture Collection (ATCC, Manassas, VA, USA). Estrogen receptor positive [(ER(+)] MCF-7 and triple negative MDA-MB-231 breast cancer cells were maintained in Dulbecco’s modified Eagle’s medium/nutrient mixture F-12 Ham (DMEM-F12) medium containing 2 mmol/L L-glutamine, 1 mg/mL penicillin-streptomycin and supplemented with 5% fetal bovine serum (FBS). HeLa epithelial cervix carcinoma cells, estrogen receptor negative [ER(-)], and Ishikawa endometrial adenocarcinoma cell, estrogen receptor positive [ER(+)], were kept in minimum essential medium (MEM), supplemented with 10% FBS, 100 U/mL penicillin/streptomycin and 1% non-essential amino acid. A2058 highly metastatic melanoma epithelial cells were kept in DMEM low glucose (1 g/L), supplemented with 20% FBS, 1% l-glutamine and 100 U/mL penicillin/streptomycin. MCF-10A mammary epithelial cells, were cultured in DMEM/F12 medium, supplemented with 5% horse serum (HS), 100 U/mL penicillin/streptomycin, […] hydrocortisone, 20 ng/mL human epidermal growth factor (hEGF), […] and […] cholera enterotoxin (Sigma-Aldrich, Milan, Italy). Hek-293 embryonic kidney epithelial cells were cultured in DMEM high glucose (4.5 g/L), supplemented with 10% FBS, 1% l-glutamine and 100 U/mL penicillin/streptomycin. Cells were conserved at 37 °C in a humid atmosphere of 95% air and 5% CO2, and screened for contamination at regular intervals.
Cell viability was determined using the 3-(4,5-dimethylthiazol-2-y1)-2,5-diphenyltetrazolium bromide (MTT, Sigma-Aldrich, Milan, Italy) assay. […]

S. aureus ATCC 6538 = assay: MIC by broth microdilution (CLSI); assay type: cell-based, Staphylococcus aureus; conditions: Staphylococcus aureus, ATCC6538; Gram-positive; 37 °C, 24 h, Mueller Hinton Broth
Method: (§2) The in vitro Minimum Inhibitory Concentrations (MICs, μg/mL) were determined by the broth microdilution method according to the Clinical Laboratory Standards Institute (CLSI) guidelines. MIC values were recorded as the lowest concentration of compounds at which there was no optically detectable microorganism growth and evaluated by comparing the growth in each well visually with that of the growth in the control well for bacteria. All compounds were dissolved in dimethyl sulfoxide (DMSO) and were tested in a final concentration range of from 512 to 2 µg/mL. MICs for the reference antibiotic norfloxacin against quality control strains were used to confirm the validity of the screen. According to the CLSI guidelines, diphenylureas were tested in vitro against a panel of Gram-positive and Gram-negative bacteria belonging to the ATCC collection using the standard microdilution test for the determination of MICs. MICs of the synthesised compounds along with the parent compound TCC and with the standard antibiotic norfloxacin are listed in Table 1. The compounds were also analyzed in terms of molecular mass, logP (Table 1), number of hydrogen-bond donors and number of hydrogen-bond acceptors, and most of them obeyed Lipinski’s rule. […] Based on our results, it seems that the 3,4-dichloro-disubstitution pattern, which is present in TCC, is not crucial for activity. […] Moreover, the activity against Enterococcus faecalis was interesting. E. faecalis is a ubiquitous member of the healthy human gut microbiota and also a common opportunistic pathogen and leading cause of nosocomial infections. It has a high incidence for most infections, and the case numbers have been increasing in recent decades, likely due to its greater ability to persist in healthcare facilities and its higher abundance in the human gut microbiome. Kim et al. (2016) compared the bactericidal effects of plain and antibacterial soap containing 0.3% TCC. The authors found no significative difference between the effects of plain and medicated soap at either temperature, with the only exception of E. faecalis ATCC 19433 at 40 °C.
(§3) MICs (μg/mL) were determined by the broth microdilution method, using 96-well plates, according to CLSI [26]. Stock solutions of the investigated compounds were obtained by setting the concentration at the maximum possible value. Then, the stock solutions were diluted 1:10 with Mueller Hinton Broth (Oxoid, Italy). Afterwards, twofold serial dilutions in the suitable test medium were carried out to obtain a set of concentrations from 512 to 2 µg/mL in the wells. To obtain the stock solution, DMSO (100%) was employed as diluent. The following bacteria strains, available as freeze-dried discs, belonging to the ATCC collection, were used: Gram-positive: S. aureus ATCC 29213, 6538, and 6538P, E. faecalis ATCC 29212; Gram-negative: K. pneuomoniae ATCC 13883, P. aeruginosa ATCC 27853. To conserve the purity of cultures and to enable their reproducibility, cryovials of all microbial strains in the medium were set up and stored at −80 °C. Pre-cultures of each bacterial strain were prepared in Mueller Hinton Broth (MHB) and incubated at 37 °C for 3–5 h. The turbidity of bacterial cell suspension was calibrated to 0.5 McFarland Standard by the spectrophotometric method (OD 625 nm 0.08–0.10), as indicated in the CLSI protocol M7-A9 and, further, the standardized suspension was diluted (1:100) with MHB to reach 1–2 × 10^6 CFU/mL. All wells were seeded with 100 µl of the mentioned final inoculum, and some wells contained only inoculated broth as control growth. […] The MICs were determined by using the assay repeated twice in triplicate. Throughout the study, norfloxacin was used as reference antibiotic. Appropriate controls involved norfloxacin for bacteria as international reference standard. […]

S. aureus ATCC 6538P = assay: MIC by broth microdilution (CLSI); assay type: cell-based, Staphylococcus aureus; conditions: Staphylococcus aureus, ATCC6538P; Gram-positive; 37 °C, 24 h, Mueller Hinton Broth
Method: as §2, §3

S. aureus ATCC 29213 = assay: MIC by broth microdilution (CLSI); assay type: cell-based, Staphylococcus aureus; conditions: Staphylococcus aureus, ATCC29213; Gram-positive; 37 °C, 24 h, Mueller Hinton Broth
Method: as §2, §3

[2] = system: A2058 melanoma epithelial cells; assay: MTT cell viability assay; assay type: cell-based; conditions: Homo sapiens, 72 h, mean ± SD of three independent experiments
Excerpt: as §1
(§4) Cell viability was determined using the 3-(4,5-dimethylthiazol-2-y1)-2,5-diphenyltetrazolium bromide (MTT, Sigma-Aldrich, Milan, Italy) assay. Cells were seeded on 48-well plates and grown in complete medium. Before treatment, cells were starved in serum free medium for 24 h to allow cell cycle synchronization. […] Data are representative of three independent experiments; standard deviations (SD) are shown.

[3] = system: MCF-10A mammary epithelial cells; assay: MTT cell viability assay; assay type: cell-based; conditions: Homo sapiens, normal cells, 72 h, mean ± SD of three independent experiments
Excerpt: as §1, §4

[4] = system: MDA-MB-231 breast cancer cells; assay: MTT cell viability assay; assay type: cell-based; conditions: Homo sapiens, 72 h, mean ± SD of three independent experiments
Excerpt: as §1, §4

[5] = system: MCF-7 breast cancer cells; assay: MTT cell viability assay; assay type: cell-based; conditions: Homo sapiens, MCF7, 72 h, mean ± SD of three independent experiments
Excerpt: as §1, §4

[6] = system: Ishikawa uterine cancer cells; assay: MTT cell viability assay; assay type: cell-based; conditions: Homo sapiens, 72 h, mean ± SD of three independent experiments
Excerpt: as §1, §4

[7] = system: Hek-293 embryonic kidney epithelial cells; assay: MTT cell viability assay; assay type: cell-based; conditions: Homo sapiens, HEK293, normal cells, 72 h, mean ± SD of three independent experiments
Excerpt: as §1, §4

[8] = system: HeLa uterine cancer cells; assay: MTT cell viability assay; assay type: cell-based; conditions: Homo sapiens, 72 h, mean ± SD of three independent experiments
Excerpt: as §1, §4

E. faecalis ATCC 29212 = assay: MIC by broth microdilution (CLSI); assay type: cell-based, Enterococcus faecalis; conditions: Enterococcus faecalis, ATCC29212; Gram-positive; 37 °C, 24 h, Mueller Hinton Broth; read-out: MIC E.f. 29212
Method: as §2, §3

P. aeruginosa ATCC 27853 = assay: MIC by broth microdilution (CLSI); assay type: cell-based; conditions: Pseudomonas aeruginosa, ATCC27853; Gram-negative; 37 °C, 24 h, Mueller Hinton Broth
Method: as §2, §3

K. pneumoniae ATCC 13883 = assay: MIC by broth microdilution (CLSI); assay type: cell-based; conditions: Klebsiella pneumoniae, ATCC13883; Gram-negative; 37 °C, 24 h, Mueller Hinton Broth; read-out: MIC K.p. 13883
Method: as §2, §3

E. coli 25922 = assay: MIC by broth microdilution (CLSI); assay type: cell-based; conditions: Escherichia coli, Gram-negative, 37 °C, 24 h, Mueller Hinton Broth
Staphylococcus aureus = assay: MIC by broth microdilution, S. aureus (strain not given); assay type: cell-based; conditions: strain not specified (best value among the ATCC strains), read-out: MIC against S. aureus
Method: as §2, §3

Row | Structure (SMILES) | IC50 [1] | MIC (S. aureus ATCC 6538) | MIC (S. aureus ATCC 6538P) | MIC (S. aureus ATCC 29213) | IC50 [2] | IC50 [3] | IC50 [4] | IC50 [5] | IC50 [6] | IC50 [7] | IC50 [8] | MIC (E. faecalis ATCC 29212) | MIC (P. aeruginosa ATCC 27853) | MIC (K. pneumoniae ATCC 13883) | melting point | MIC (E. coli 25922) | MIC (Staphylococcus aureus)
1 | Cc1ccc(NC(=O)Nc2c(C)cccc2C)cc1 [1ab, 1-(2,6-Dimethylphenyl)-3-p-tolylurea] | > 200 µg/mL | 16 µg/mL (≈ 62.9 µM) | 16 µg/mL (≈ 62.9 µM) | > 256 µg/mL | > 200 µg/mL | > 200 µg/mL | > 200 µg/mL | > 200 µg/mL | > 200 µg/mL | > 200 µg/mL | > 200 µg/mL | 32 µg/mL (≈ 126 µM) | > 256 µg/mL | > 256 µg/mL | 242 to 243 °C | > 256 µg/mL | 16 µg/mL (≈ 62.9 µM)
2 | Cc1cccc(C)c1NC(=O)Nc1ccc(Cl)cc1 [1bc, 1-(2,6-Dimethylphenyl)-3-(4-chlorophenyl)urea] | > 200 µg/mL | 16 µg/mL (≈ 58.2 µM) | 16 µg/mL (≈ 58.2 µM) | 256 µg/mL (≈ 932 µM) | > 200 µg/mL | > 200 µg/mL | > 200 µg/mL | > 200 µg/mL | > 200 µg/mL | > 200 µg/mL | > 200 µg/mL | 32 µg/mL (≈ 116 µM) | > 256 µg/mL | > 256 µg/mL | 244 to 245 °C | > 256 µg/mL | 16 µg/mL (≈ 58.2 µM)
3 | O=C(Nc1ccc(Cl)cc1)Nc1ccc(Cl)c(Cl)c1 [1ce (TCC), 1-(3,4-Dichlorophenyl)-3-(4-chlorophenyl)urea, reference compound] | 0.64 to 1.68 µg/mL (≈ 2.03 to 5.32 µM) | 128 µg/mL (≈ 406 µM) | 16 µg/mL (≈ 50.7 µM) | 16 µg/mL (≈ 50.7 µM) | 0.89 ± 0.7 µg/mL (≈ 2.82 µM) | 1.43 ± 0.7 µg/mL (≈ 4.53 µM) | 0.89 ± 0.8 µg/mL (≈ 2.82 µM) | 0.64 ± 0.5 µg/mL (≈ 2.03 µM) | 1.68 ± 0.9 µg/mL (≈ 5.32 µM) | 1.6 ± 0.8 µg/mL (≈ 5.07 µM) | 1.01 ± 1.1 µg/mL (≈ 3.2 µM) | 64 µg/mL (≈ 203 µM) | 256 µg/mL (≈ 811 µM) | 256 µg/mL (≈ 811 µM) |  | 256 µg/mL (≈ 811 µM) | 16 µg/mL (≈ 50.7 µM)
4 | Cc1ccccc1NC(=O)Nc1ccccc1 [1fg, 1-(2-Methylphenyl)-3-phenylurea] |  | 32 µg/mL (≈ 141 µM) | 16 µg/mL (≈ 70.7 µM) | 256 µg/mL (≈ 1130 µM) |  |  |  |  |  |  |  | 64 µg/mL (≈ 283 µM) | > 256 µg/mL | 256 µg/mL (≈ 1130 µM) | 241 to 242 °C | > 256 µg/mL | 16 µg/mL (≈ 70.7 µM)
5 | Cc1ccccc1NC(=O)Nc1ccccc1Cl [1gh, 1-(2-Chlorophenyl)-3-(2-methylphenyl)urea] |  | 32 µg/mL (≈ 123 µM) | 32 µg/mL (≈ 123 µM) | 256 µg/mL (≈ 982 µM) |  |  |  |  |  |  |  | 256 µg/mL (≈ 982 µM) | > 256 µg/mL | > 256 µg/mL | 223 to 224 °C | > 256 µg/mL | 32 µg/mL (≈ 123 µM)
6 | Cc1ccccc1NC(=O)Nc1ccccc1F [1gl, 1-(2-Metylphenyl)-3-(2-fluorophenyl)urea] |  | 64 µg/mL (≈ 262 µM) | 32 µg/mL (≈ 131 µM) | 128 µg/mL (≈ 524 µM) |  |  |  |  |  |  |  | 128 µg/mL (≈ 524 µM) | > 256 µg/mL | > 256 µg/mL | 224 to 225 °C | > 256 µg/mL | 32 µg/mL (≈ 131 µM)
